Key:
[1] = preliminary data, animal model
[2] = tested on: hypophyseal adrenal system; conditions: cited from earlier work
[3] = tested on: microsomal cyclooxygenase system; conditions: animal models; cited from earlier work

For `CC[C@H](C)[C@H](NC(=O)CN)C(=O)NCC(=O)N[C@@H](C)C(=O)N[C@H](C(=O)N[C@@H](CC(C)C)C(=O)N[C@@H](CCCCN)C(=O)N[C@H](C(=O)N[C@@H](CC(C)C)C(=O)N[C@H](C(=O)N[C@H](C(=O)NCC(=O)N[C@@H](CC(C)C)C(=O)N1CCC[C@H]1C(=O)N[C@@H](C)C(=O)N[C@@H](CC(C)C)C(=O)N[C@H](C(=O)N[C@@H](CO)C(=O)N[C@@H](Cc1c[nH]c2ccccc12)C(=O)N[C@H](C(=O)N[C@@H](CCCCN)C(=O)N[C@@H](CCCNC(=N)N)C(=O)N[C@@H](CCCCN)C(=O)N[C@@H](CCCNC(=N)N)C(=O)N[C@@H](CCC(N)=O)C(=O)N[C@@H](CCC(N)=O)C(N)=O)[C@@H](C)CC)[C@@H](C)CC)[C@@H](C)O)[C@@H](C)O)C(C)C)C(C)C` [Melittin], the “allergen component of the venom” value [1] is listed as “major allergen component” and the “potency of released cortisol relative to hydrocortisone” value [2] is listed as 100 times.
In the case of Adolapin [Ado lapin], the “strength relative to Indomethacine” value [3] is listed as 70 times.
In the case of Phospholipase A2, the “allergen component of the venom” value [1] is reported as “major allergen component”.

Reference: patent US20030118597A1 (priority 2001, published 2003)
